Data from patent US7598258B2, “Quinoline derivatives and quinazoline derivatives inhibiting autophosphorylation of macrophage colony stimulating factor receptor” (Kirin Beer Kabushiki Kaisha, priority 2002, dated 2009).
pIC50: −log10 of the molar value.

What follows are compounds tested against T1, mouse c-fms (Mus musculus, UniProt P09581) (assay: Inhibition of c-fms autophosphorylation in macrophage-like cell line BAC-1.2F5 by M-CSF stimulation (ELISA)). Details: BAC-1.2F5 cells, human recombinant M-CSF 50 ng/ml, read-out: c-fms autophosphorylation 50% inhibitory concentration (IC50).
T1 construct: Macrophage-like cell line BAC-1.2F5 which expresses c-fms as a M-CSF receptor on cell membranes; endogenous in cells; host or cells: BAC-1.2F5 mouse macrophage-like cell line
T1 sequence (P09581 20-977): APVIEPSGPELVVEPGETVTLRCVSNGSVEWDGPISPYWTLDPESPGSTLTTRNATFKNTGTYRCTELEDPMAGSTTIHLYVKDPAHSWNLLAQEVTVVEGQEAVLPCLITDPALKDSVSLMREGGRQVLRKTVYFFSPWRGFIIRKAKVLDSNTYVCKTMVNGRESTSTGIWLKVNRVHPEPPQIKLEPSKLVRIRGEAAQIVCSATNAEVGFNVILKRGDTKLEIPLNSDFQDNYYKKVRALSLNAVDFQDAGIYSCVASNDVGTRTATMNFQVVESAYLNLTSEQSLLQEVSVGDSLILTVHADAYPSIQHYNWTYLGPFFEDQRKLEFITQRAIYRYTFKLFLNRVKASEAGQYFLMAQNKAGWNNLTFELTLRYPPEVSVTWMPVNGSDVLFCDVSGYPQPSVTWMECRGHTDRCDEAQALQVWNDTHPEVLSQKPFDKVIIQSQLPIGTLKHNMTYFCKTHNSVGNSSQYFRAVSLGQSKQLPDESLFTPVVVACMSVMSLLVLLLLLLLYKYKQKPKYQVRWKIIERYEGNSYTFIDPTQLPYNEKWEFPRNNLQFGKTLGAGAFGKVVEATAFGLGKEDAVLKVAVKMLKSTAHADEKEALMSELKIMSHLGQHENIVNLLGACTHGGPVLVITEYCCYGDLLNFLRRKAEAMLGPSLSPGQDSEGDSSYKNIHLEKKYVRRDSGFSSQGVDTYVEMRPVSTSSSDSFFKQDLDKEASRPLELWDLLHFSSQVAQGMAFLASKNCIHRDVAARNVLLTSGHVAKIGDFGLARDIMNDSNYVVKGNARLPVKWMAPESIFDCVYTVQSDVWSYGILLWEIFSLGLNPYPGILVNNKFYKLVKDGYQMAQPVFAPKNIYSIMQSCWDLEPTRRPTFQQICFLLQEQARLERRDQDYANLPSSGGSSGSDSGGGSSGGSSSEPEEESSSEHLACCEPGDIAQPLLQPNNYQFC
Format: cell-based
Procedure: Macrophage-like cell line BAC-1.2F5 which expresses c-fms as a M-CSF receptor on cell membranes (CLAUDIA M. et al., J. Cell. Physiol., 130, 420-427 (1987), “Isolation and Characterization of a Cloned Growth Factor Dependent Macrophage Cell Line, BAC1.2F5”) was cultured at 37° C. in a DMEM medium containing L-cell supernatant and 10% fetal calf serum (GIBCO BRL) in a 5% CO2 incubator until about 50 to 70% confluent. The harvested cells were inoculated into wells, each containing the same medium, in a collagen type I coat 96-well flat-bottom plate in an amount of 5.0×10^4 per well, and cultured at 37° C. for 12 hr. Thereafter, the medium was replaced with a DMEM medium containing a 0.1% fetal calf serum and cultured for 12 hr. Thereafter, a test compound dissolved in dimethyl sulfoxide was added to each well, and cells were incubated at 37° C. for one hr. Human recombinant M-CSF was added to a final concentration of 50 ng/ml, and cells were stimulated at 37° C. for 6 min. After the medium was removed, 50 μl of a solubilization buffer (20 mM HEPES (pH 7.4), 150 mM NaCl, 0.2% Triton X-100, 10% glycerol, 5 mM sodium orthovanadylate, 5 mM disodium ethylenediaminetetraacetate, and 2 mM Na4P2O7) was added thereto. The mixture was shaken at 4° C. for 2 hr to prepare a cell extract as an assay sample which was then used for an ELISA assay.
The plate for the ELISA assay was prepared as follows. Phosphate buffered saline (50 μl, pH 7.4) containing 5 μg/ml of anti-phospho-tyrosine antibody (PY20; Transduction Laboratories) was added to a microplate for ELISA (Maxisorp; purchased from NUNC), followed by standing at 4° C. overnight to be immobilized on the wells. Thereafter, each well was washed twice with 200 μl of a Ca- and Mg-free phosphate buffer containing 0.1% Tween-20 (hereinafter referred to as “PBS-T”), and 200 μl of a blocking solution (Dainippon Pharmaceutical Co. Ltd.: BlockAce) was added to each well, and the wells were then allowed to stand at room temperature for 2 hr for blocking.
Separately, phosphate buffered saline (50 μl, pH 7.4) containing 5 μg/ml of anti-phospho-tyrosine antibody (PY20; Transduction Laboratories) was added to a microplate for ELISA (Maxisorp; purchased from NUNC), followed by standing at 4° C. overnight to form a solid phase on the wells. After washing of the plate, 300 μl of a blocking solution was added, followed by standing at room temperature for 2 hr to perform blocking. After washing, the whole quantity of the cell extract was transferred to the wells, and the plate was then allowed to stand at 4° C. overnight. After washing, anti-c-fms antiserum (Upstate Biotechnology, Inc.) was allowed to react at room temperature for one hr, and, after washing, a peroxidase-labeled anti-rabbit Ig antibody (Amersham) was allowed to react at room temperature for one hr. After washing, a chromophoric substrate for peroxidase (Sumitomo Bakelite Co., Ltd.) was added thereto to initiate a reaction. After a suitable level of color development, a reaction termination solution was added to stop the reaction, and the absorbance at 450 nm was measured with a microplate reader. The c-fms phosphorylation activity for each well was determined by presuming the absorbance without the addition of the test compound and with the addition of M-CSF to be 100% c-fms phosphorylation activity and the absorbance without the addition of the test compound and M-CSF to be 0% c-fms phosphorylation activity. The concentration of the test compound was varied on several levels, the c-fms phosphorylation inhibitory rate was determined for each case, and the concentration of the test compound necessary for inhibiting 50% of c-fms phosphorylation (IC50) was calculated.

| Compound | pIC50 |
| --- | --- |
| COc1cc2nccc(Oc3cc(C)c(NC(=O)NC(C)c4ccc(F)cc4)cc3C)c2cc1OC (stereo not shown) [Example 7, N-{4-[(6,7-Dimethoxy-4-quinolyl)oxy]-2,5-dimethylphenyl}-N′-[1-(4-fluorophenyl)ethyl]urea] | 7.69 |
| COc1cc2nccc(Oc3ccc(NC(=O)N[C@@H](C)c4ccc(Br)cc4)cc3)c2cc1OC [Example 34, N-[(1S)-1-(4-Bromophenyl)ethyl]-N′-{4-[(6,7-dimethoxy-4-quinolyl)oxy]phenyl}urea] | 8.20 |
| COc1cc2nccc(Oc3ccc(NC(=O)N[C@@H](C)c4ccc(F)cc4)c(C(F)(F)F)c3)c2cc1OC [Example 20, N-[4-[(6,7-Dimethoxy-4-quinolyl)oxy]-2-(trifluoromethyl)phenyl]-N′-[(1S)-1-(4-fluorophenyl)ethyl]urea] | 8.21 |
| COc1cc2nccc(Oc3ccc(NC(=O)N[C@@H](C)c4ccc(F)cc4)c(Cl)c3)c2cc1OC [Example 5, N-{2-Chloro-4-[(6,7-dimethoxy-4-quinolyl)oxy]phenyl}-N′-[(1S)-1-(4-fluorophenyl)ethyl]urea] | 8.66 |
| COc1cc2nccc(Oc3ccc(NC(=O)N[C@H](C)c4ccc(F)cc4)c(C)c3)c2cc1OC [Example 15, N-{4-[(6,7-Dimethoxy-4-quinolyl)oxy]-2-methylphenyl}-N′-[(1R)-1-(4-fluorophenyl)ethyl]urea] | 8.24 |
| COc1cc2nccc(Oc3ccc(NC(=O)N[C@H](C)c4ccc(F)cc4)c(Cl)c3)c2cc1OC [Example 6, N-{2-Chloro-4-[(6,7-dimethoxy-4-quinolyl)oxy]phenyl}-N′-[(1R)-1-(4-fluorophenyl)ethyl]urea] | 8.22 |
| COc1cc2nccc(Oc3ccc(NC(=O)NC(C)c4ccc(F)cc4)cc3)c2cc1OC (stereo not shown) [Example 1, N-{4-[(6,7-Dimethoxy-4-quinolyl)oxy]phenyl}-N′-[1-(4-fluorophenyl)ethyl]urea] | 8.62 |
| COc1cc2nccc(Oc3ccc(NC(=O)N[C@H](C)c4ccc(F)cc4)c(C(F)(F)F)c3)c2cc1OC [Example 21, N-[4-[(6,7-Dimethoxy-4-quinolyl)oxy]-2-(trifluoromethyl)phenyl]-N′-[(1R)-1-(4-fluorophenyl)ethyl]urea] | 8.01 |
| COc1cc2nccc(Oc3ccc(NC(=O)N[C@@H](C)c4ccccc4OC)cc3)c2cc1OC [Example 51, N-{4-[(6,7-Dimethoxy-4-quinolyl)oxy]phenyl}-N′-[(1S)-1-(2-methoxyphenyl)ethyl]urea] | 8.12 |

Further lines, results first:

| pIC50 | Compound |
| --- | --- |
| 8.54 | COc1cc2nccc(Oc3ccc(NC(=O)N[C@@H](C)c4nccs4)cc3)c2cc1OC [Example 78, N-{4-[(6,7-Dimethoxy-4-quinolyl)oxy]phenyl}-N′-[(S)-1-(1,3-thiazol-2-yl)ethyl]urea] |
| 7.51 | COc1cc2nccc(Oc3ccc(NC(=O)N[C@H](C)c4cccc(Br)c4)c(F)c3)c2cc1OC [Example 63, N-[(1R)-1-(3-Bromophenyl)ethyl]-N′-{4-[(6,7-dimethoxy-4-quinolyl)oxy]-2-fluorophenyl}urea] |
| 7.16 | COc1cc2nccc(Oc3ccc(NC(=O)NC(C)c4ncc(C)s4)c(C)c3)c2cc1OC (stereo not shown) [Example 103, N-{4-[(6,7-Dimethoxy-4-quinolyl)oxy]-2-methylphenyl}-N′-[1-(5-methyl-1,3-thiazol-2-yl)ethyl]urea] |
| 7.69 | COc1cc(Oc2ccnc3cc(OC)c(OC)cc23)ccc1NC(=O)N[C@H](C)c1cccc(Br)c1 [Example 59, N-[(1R)-1-(3-Bromophenyl)ethyl]-N′-{4-[(6,7-dimethoxy-4-quinolyl)oxy]-2-methoxyphenyl}urea] |
| 8.57 | COc1ccc([C@H](C)NC(=O)Nc2ccc(Oc3ccnc4cc(OC)c(OC)cc34)cc2)cc1 [Example 53, N-{4-[(6,7-Dimethoxy-4-quinolyl)oxy]phenyl}-N′-[(1S)-1-(4-methoxyphenyl)ethyl]urea] |
| 7.69 | COc1cc2nccc(Oc3ccc(NC(=O)NC(C)c4ncc(C)s4)cc3F)c2cc1OC (stereo not shown) [Example 102, N-{4-[(6,7-Dimethoxy-4-quinolyl)oxy]-3-fluorophenyl}-N′-[1-(5-methyl-1,3-thiazol-2-yl)ethyl]urea] |
| 7.41 | COc1cc2nccc(Oc3cc(C)c(NC(=O)NC(C)c4nc(C)cs4)cc3C)c2cc1OC (stereo not shown) [Example 93, N-{4-[(6,7-Dimethoxy-4-quinolyl)oxy]-2,5-dimethylphenyl}-N′-[1-(4-methyl-1,3-thiazol-2-yl)ethyl]urea] |
| 7.34 | COc1cc2nccc(Oc3ccc(NC(=O)N[C@H](C)c4cccc(Br)c4)c(Cl)c3)c2cc1OC [Example 55, N-[(1R)-1-(3-Bromophenyl)ethyl]-N′-{2-chloro-4-[(6,7-dimethoxy-4-quinolyl)oxy]phenyl}urea] |
| 8.44 | COc1cc(Oc2ccnc3cc(OC)c(OC)cc23)ccc1NC(=O)NC(C)c1nc(C)cs1 (stereo not shown) [Example 90, N-{4-[(6,7-Dimethoxy-4-quinolyl)oxy]-2-methoxyphenyl}-N′-[1-(4-methyl-1,3-thiazol-2-yl)ethyl]urea] |
| 7.80 | COc1cc2nccc(Oc3ccc(NC(=O)NC(C)c4ncc(C)s4)cc3)c2cc1OC (stereo not shown) [Example 100, N-{4-[(6,7-Dimethoxy-4-quinolyl)oxy]phenyl}-N′-[1-(5-methyl-1,3-thiazol-2-yl)ethyl]urea] |
| 8.49 | COc1cc2nccc(Oc3ccc(NC(=O)NC(C)c4nc(C)cs4)cc3)c2cc1OC (stereo not shown) [Example 91, N-{4-[(6,7-Dimethoxy-4-quinolyl)oxy]phenyl}-N′-[1-(4-methyl-1,3-thiazol-2-yl)ethyl]urea] |
| 8.08 | COc1cc2nccc(Oc3ccc(NC(=O)NC(C)c4nc(C)cs4)c(C(F)(F)F)c3)c2cc1OC (stereo not shown) [Example 92, N-[4-[(6,7-Dimethoxy-4-quinolyl)oxy]-2-(trifluoromethyl)phenyl]-N′-[1-(4-methyl-1,3-thiazol-2-yl)ethyl]urea] |
| 6.89 | COc1cc2nccc(Oc3ccc(NC(=O)N[C@H](C)c4cccc(Br)c4)cc3Cl)c2cc1OC [Example 57, N-[(1R)-1-(3-Bromophenyl)ethyl]-N′-{3-chloro-4-[(6,7-dimethoxy-4-quinolyl)oxy]phenyl}urea] |
